Consider 3 molecules from ChEMBL document CHEMBL1135320, “Novel phenolic antioxidants as multifunctional inhibitors of inducible VCAM-1 expression for use in atherosclerosis” (Bioorg Med Chem Lett, 2002).

Activity calls are given as the source filed them. The rule behind the calls is not given here.

Assay [1] concerns HASMC. The assay is described as follows: Inhibition of proliferation of human aortic smooth muscle cells at a concentration of 5 uM; NE is no Effect. Format: functional, cell-based.
For a further assay, the system named is Oryctolagus cuniculus. Briefly: Inhibition of progression of atherosclerosis in aorta after oral dosing in cholesterol fed rabbits. Format: functional.
The test system of the next assay is Mus musculus. The assay is described as follows: Inhibition of progression of atherosclerosis in aorta after oral dosing in cholesterol fed LDL receptor knockout mice. The format is functional.
Assay [2] is described as follows: Inhibitory effect in preventing the oxidation of linoleic acid by 15-lipoxygenase at a concentration of 70 uM. Format: functional.
The subject of assay [3] is HASMC. Briefly: Inhibition of proliferation of human aortic smooth muscle cells at a concentration of 5 uM. Format: functional.
A short description of assay [4]: Concentration required for 50% inhibition of TNF-alpha inducible MCP-1 expression.
Assay [5] in a line: Concentration required for 50% inhibition of TNF-alpha inducible Selectin E expression.

Regarding `CC(C)(Sc1cc(C(C)(C)C)c(O)c(C(C)(C)C)c1)Sc1cc(C(C)(C)C)c(O)c(C(C)(C)C)c1`, the inhibition entry in the assay with HASMC [1] is “inactive”.
As for `CC(C)(Sc1cc(C(C)(C)C)c(O)c(C(C)(C)C)c1)Sc1cc(C(C)(C)C)c(OC(=O)CCC(=O)O)c(C(C)(C)C)c1` [SUCCINOBUCOL], the Inhibition with Oryctolagus cuniculus is 94%; in the assay on Mus musculus, 43%. Besides, the inhibition in assay [2] was 85%. In the assay on HASMC [3], this molecule came in with an inhibition at 5 µM of about 50%. Moreover, the figures for the concentration for half-maximal inhibition (IC50) in assay [4] and in assay [5] were 10 µM and 25 µM, respectively.
Turning to `CC(C)(Sc1cc(C(C)(C)C)c(OC(=O)CCC(=O)O)c(C(C)(C)C)c1)Sc1cc(C(C)(C)C)c(OC(=O)CCC(=O)O)c(C(C)(C)C)c1`, in assay [2], the inhibition was determined as 85%.

Broadly, the inhibition is the drop in the measured response relative to a control, in per cent. In general, Inhibition refers to the relative decrease from the control value, in per cent. By IC50 is commonly meant the concentration that inhibits the measured activity by half. High values mean lower potency, low ones higher potency.
